{"source": "patent US20070275046A1", "about": "“Noval Surfactants and Applications Thereof” (TS PHARMA, priority 2003, published 2007)", "format_in_all_cases": "physicochemical", "key": {"[1]": {"experiment": "Mechanical stability over time of the particles (particle size on storage)", "description": "(§1) The size and the mechanical stability over time of the particles obtained in the solution were measured after filtration by dynamic light diffraction (High Performance Particle Sizer, Malvern). The nature of the particles obtained was studied by transmission electron microscopy after negative staining of the sample or after freeze-fracture (FIG. 4).\n(§2) The size and the mechanical stability over time of the particles obtained in the solution were measured after dynamic light diffraction filtration (High Performance Particle Sizer, Malvern). The nature of the particles obtained was studied by transmission electron microscopy after negative staining of the sample or after freeze-fracture. The critical aggregation concentration of these surfactants was determined by tensiometry or by spectrofluorimetry using the fluorescent label method. Furthermore, the Wilhelmy tensiometry technique made it possible to determine the maximum surface tensions and the area of the polar head at the water-air interface (FIG. 8). […] In order to cause this value to decrease or increase, it is necessary to, respectively, increase or decrease the length of the hydrocarbon-based chains. The phase transition temperature of these surfactants was determined by polarization spectrofluorimetry and by light scattering (FIG. 9)."}, "[2]": {"experiment": "Particle size by dynamic light diffraction / photon correlation spectroscopy (Malvern HPPS)", "description": "as §1\nThe size and the mechanical stability over time of the particles obtained in the solution were measured after dynamic light diffraction filtration (High Performance Particle Sizer, Malvern). The nature of the particles obtained was studied by transmission electron microscopy after negative staining of the sample or after freeze-fracture. The critical aggregation concentration of these surfactants was determined by tensiometry or by spectrofluorimetry using the fluorescent label method. […] The phase transition temperature of these surfactants was determined by polarization spectrofluorimetry and by light scattering (FIG. 9).\nThe size distribution of the particles was measured by photon correlation spectroscopy of light of samples diluted in water using a Malvern HPPS/NIBS device equipped with a 3 mW He/Ne laser and a 288-channel correlator equipped with an avalanche of photodiodes. […]"}, "[3]": {"experiment": "Shape and size of tubular vesicles from transmission electron micrographs (negative staining, freeze-fracture)", "description": "as §1\nThe freeze-fracture analyses confirmed the formation of these tubular vesicles and their morphological characteristics, namely the presence of an inner aqueous cavity isolated from the outside medium (FIG. 5).\nThe freeze-fracture analyses confirmed the formation of these tubular vesicles and their morphological characteristics, i.e. the presence of an inner aqueous cavity isolated from the outside medium."}, "[4]": {"experiment": "Phase transition temperature by polarization spectrofluorimetry (DPH probe) and light scattering", "conditions": "polarization of fluorescent probe DPH", "description": "as §2\nWith R=C17H35 (derivative A1). The phase transition temperature was measured via detection of the polarization of a fluorescent probe, DPH, by spectrofluorimetry: Tm=54° C."}, "[5]": {"experiment": "Release kinetics of encapsulated carboxyfluorescein by spectrofluorimetry", "conditions": "compared with encapsulation in egg yolk phosphatidylcholine; 25° C., Tris buffer pH 7.4, 4 h", "description": "The encapsulation capacity of the various compounds is determined by spectrofluorimetry using a fluorescent probe: 5 (6)-carboxyfluorescein. The release of this fluorescent label from the vesicles prepared according to standardized methods is measured.\nThis study requires the preparation of a Tris buffer (15 mM and 150 mM NaCl) at pH 7.4, and also of a 120 mM carboxyfluorescein solution, also at pH 7.4.\nThe compounds studied are weighed out (2.5 mg/ml) and are dissolved in a minimum amount of methanol. The solvent is evaporated off under reduced pressure in a rotary evaporator and the film thus obtained is dried with a stream of nitrogen. […]\nThe fluorescence measurements were carried out using a Jobin-Yvon spectrofluorimeter (spectrofluoromax 2), equipped with a 150 W xenon lamp. […] The samples were analyzed at an excitation wavelength of 480 nm, and an emission wavelength of 530 nm for 4 hours. […]\nFor each measurement, the initial fluorescence intensity (F0) is determined 30 seconds after the column filtration. The release is studied over a period of 4 h and the fluorescence intensity (Ft) is measured at regular intervals. The maximum fluorescence intensity (Fmax), which corresponds to 100% release, is obtained after tubular vesicle lysis obtained by the addition of Triton X100 (10% v/v). […]"}}}
{"smiles": "CCCCCCCCCCCCCCCCCNC(=O)OCC(CNC(=O)CCSCCC(=O)NC(CO)(CO)CO)OC(=O)NCCCCCCCCCCCCCCCCC", "note": "(centres unmarked) [A1]", "values": [{"measurement": "change in particle size on storage", "setting": "[1]; aqueous dispersion of tubular vesicles", "value": "no change in particle size is observed after one year of storage"}, {"measurement": "mean hydrodynamic diameter of the tubular vesicles", "setting": "[2]; tubular vesicles from lipid dispersed in water at 2.5 mg.ml^-1, measured by light diffraction", "value": 132, "unit": "nm"}, {"measurement": "IP", "setting": "[2]; tubular vesicles, light diffraction, printed with the mean hydrodynamic diameter", "value": 0.35}, {"measurement": "average cross section of the tubular vesicles", "setting": "[3]", "value": 38, "unit": "nm"}, {"measurement": "average length of the tubular vesicles", "setting": "[3]", "value": 247, "unit": "nm"}, {"measurement": "phase transition temperature Tm", "setting": "[4]", "value": 54, "unit": "°C"}, {"measurement": "release kinetics of encapsulated carboxyfluorescein", "setting": "[5]", "value": "slower release kinetics"}]}
{"smiles": "CCCCCCCCCCCCCCCCCC(=O)OCC(CNC(=O)CCSCCC(=O)NC(CO)(CO)CO)OC(=O)CCCCCCCCCCCCCCCCC", "note": "(centres unmarked) [B, reference compound]", "values": [{"measurement": "mechanical stability of the liposomes formed in water", "setting": "[1]; liposomes with conventional structures", "value": "only a few hours"}]}
